Data: patent publication US20250002597A1, “METHOD FOR OPTIMIZING DRUG SELECTION” (priority 2023, published 2025)

System: T-lymphocytes
Assay: Lymphocyte toxicity assay (LTA)
Assay type: cell-based, human
Settings: for Viability %: post-mastectomy
From the text: The present invention is particularly effective in determining the efficacy of the drug alone by measuring the lymphocyte toxicity assay and then combining the prescribed drug with various anabolic steroidal compounds.
Exemplifying the present invention is Table 2 below which sets forth a lymphocyte toxicity assay for a post-mastectomy treatment for reducing pain by measuring the efficacy of combining a known drug, Inflectra, with a steroidal compound which is an anti-tumor necrosis alpha inhibitor as the base.

[1] = single therapeutic, patient blood cells, untreated cell control = 100%

Row | Compound | Viability % [1] | Toxicity to the cells (interpretation in words) (patient blood cells exposed to the therapeutics) | Toxicity [1]
1 | C[C@]12CC[C@H]3[C@@H](CCC4=CC(=O)CC[C@@H]43)[C@@H]1CC[C@@H]2O [Nandrolone] | 158% |  | 
2 | C[C@]12COC(=O)C[C@@H]1CC[C@@H]1[C@@H]2CC[C@@]2(C)[C@H]1CC[C@]2(C)O [Oxandrolone] | 117% |  | 
3 | C[C@]12Cc3c[nH]nc3C[C@@H]1CC[C@@H]1[C@@H]2CC[C@@]2(C)[C@H]1CC[C@]2(C)O [Stanozolol] |  | The only medication that was toxic to the cell was Stanozolol. However, the combination of Stanozolol | 14%
4 | C[C@]12CC[C@H]3[C@@H](CCC4=CC(=O)CC[C@@]43C)[C@@H]1CC[C@@H]2O [Testosterone] | 150% |  | 
5 | INFLECTRA: known drug; anti-tumor necrosis alpha inhibitor | 160% |  | 
